Source: patent US10875876B2, “Cyclized sulfamoylarylamide derivatives and the use thereof as medicaments for the treatment of hepatitis B” (priority 2015, dated 2020)
pEC50: −log10 of the molar value. Like-named read-outs stand apart in the source and are kept apart here.

How the values were obtained:
[1] = tested on: HBV; experiment: anti HBV activity, HepG2.117 cell line, intracellular HBV DNA by realtime PCR; assay type: cell-based; conditions: HepG2.117 cell line (Tet-off), 3 days of treatment, intracellular HBV DNA quantified by realtime PCR, read-out: HBV-AVE-HepG2.117 EC50
Method: The anti HBV activity was measured using the HepG2.117 cell line, a stable, inducibly HBV producing cell line, which replicates HBV in the absence of doxicycline (Tet-off system). For the antiviral assay, HBV replication was induced, followed by a treatment with serially diluted compound in 96-well plates in duplicate. After 3 days of treatment, the antiviral activity was determined by quantification of intracellular HBV DNA using realtime PCR and an HBV specific primer set and probe.

[2] = Cytotoxicity in HepG2 cells, Resazurin assay; conditions: human, HepG2 cells, TOX-HepG2-4 d CC50 (μM), HepG2 cells incubated for 4 days, viability by Resazurin assay
[3] = Hepatitis B virus, HepG2.117, 72 h

| Structure (SMILES) | pEC50 [1, 3] | CC50 at 4 days [2] | pEC50 [1] |
| --- | --- | --- | --- |
| C[C@H]1CCc2c(cn(C)c2C(=O)Nc2ccc(F)c(C(F)(F)F)c2)S(=O)(=O)N1 (single isomer, unassigned) [Compound 40, (3*S)—N-[4-fluoro-3-(trifluoromethyl)phenyl]-3,7-dimethyl-1,1-dioxo-2,3,4,5-tetrahydropyrrolo[3,4-f]thiazepine-6-carboxamide] | 7.66 | > 25 µM | – |
| Cc1cc(NC(=O)c2c3c(cn2C)S(=O)(=O)N[C@@H](C)CC3)ccc1F (single isomer, unassigned) [Compound 41, (3*S)—N-(4-fluoro-3-methyl-phenyl)-3,7-dimethyl-1,1-dioxo-2,3,4,5-tetrahydropyrrolo[3,4-f]thiazepine-6-carboxamide] | 8.10 | > 25 µM | – |
| C[C@H]1C=Cc2c(cn(C)c2C(=O)Nc2ccnc(C(F)(F)F)c2)S(=O)(=O)N1 (single isomer, unassigned) [Compound 42, (3*S)-3,7-dimethyl-1,1-dioxo-N-[2-(trifluoromethyl)-4-pyridyl]-2,3-dihydropyrrolo[3,4-f]thiazepine-6-carboxamide] | 7.09 | > 25 µM | – |
| C[C@H]1C=Cc2c(cn(C)c2C(=O)Nc2ccnc(Br)c2)S(=O)(=O)N1 (single isomer, unassigned) [Compound 50, (3*S)—N-(2-bromo-4-pyridyl)-3,7-dimethyl-1,1-dioxo-2,3-dihydropyrrolo[3,4-f]thiazepine-6-carboxamide] | 8.70 | > 25 µM | – |
| C[C@H]1C=Cc2c(cn(C)c2C(=O)Nc2ccc(F)c(C(F)F)c2)S(=O)(=O)N1 (single isomer, unassigned) [Compound 51, (3*S)—N-[3-(difluoromethyl)-4-fluoro-phenyl]-3,7-dimethyl-1,1-dioxo-2,3-dihydropyrrolo[3,4-f]thiazepine-6-carboxamide] | > 8.70 | > 25 µM | – |
| C[C@H]1C=Cc2c(cn(C)c2C(=O)Nc2ccc(F)c(Cl)c2F)S(=O)(=O)N1 (single isomer, unassigned) [Compound 52, (3*S)—N-(3-chloro-2,4-difluoro-phenyl)-3,7-dimethyl-1,1-dioxo-2,3-dihydropyrrolo[3,4-f]thiazepine-6-carboxamide] | 7.25 | > 25 µM | – |
| C[C@H]1CCc2c(cn(C)c2C(=O)Nc2ccnc(C(F)(F)F)c2)S(=O)(=O)N1 (single isomer, unassigned) [Compound 53, (3*S)-3,7-dimethyl-1,1-dioxo-N-[2-(trifluoromethyl)-4-pyridyl]-2,3,4,5-tetrahydropyrrolo[3,4-f]thiazepine-6-carboxamide] | 6.72 | > 25 µM | – |
| C[C@H]1CCc2c(cn(C)c2C(=O)Nc2ccc(F)c(Cl)c2F)S(=O)(=O)N1 (single isomer, unassigned) [Compound 54, (3*S)—N-(3-chloro-2,4-difluoro-phenyl)-3,7-dimethyl-1,1-dioxo-2,3,4,5-tetrahydropyrrolo[3,4-f]thiazepine-6-carboxamide] | 8.40 | > 25 µM | – |
| C[C@H]1CCc2c(cn(C)c2C(=O)Nc2ccc(F)c(C(F)F)c2)S(=O)(=O)N1 (single isomer, unassigned) [Compound 55, (3*S)—N-[3-(difluoromethyl)-4-fluoro-phenyl]-3,7-dimethyl-1,1-dioxo-2,3,4,5-tetrahydropyrrolo[3,4-f]thiazepine-6-carboxamide] | 8.52 | > 25 µM | – |
| C[C@H]1CCc2c(cn(C)c2C(=O)Nc2ccc(F)c(C#N)c2)S(=O)(=O)N1 (single isomer, unassigned) [Compound 56, (3*S)—N-(3-cyano-4-fluoro-phenyl)-3,7-dimethyl-1,1-dioxo-2,3,4,5-tetrahydropyrrolo[3,4-f]thiazepine-6-carboxamide] | 8.00 | > 25 µM | – |
| C[C@H]1CCc2c(cn(C)c2C(=O)Nc2ccnc(Br)c2)S(=O)(=O)N1 (single isomer, unassigned) [Compound 57, (3*S)—N-(2-bromo-4-pyridyl)-3,7-dimethyl-1,1-dioxo-2,3,4,5-tetrahydropyrrolo[3,4-f]thiazepine-6-carboxamide] | 7.89 | > 25 µM | – |
| Cn1cc2c(c1C(=O)Nc1ccnc(C(F)(F)F)c1)CCC(C(F)(F)F)NS2(=O)=O (single isomer, unassigned) [Compound 59a, 7-methyl-1,1-dioxo-3-(trifluoromethyl)-N-[2-(trifluoromethyl)-4-pyridyl]-2,3,4,5-tetrahydropyrrolo[3,4-f]thiazepine-6-carboxamide] | – | > 25 µM | < 6.30 |
| Cn1cc2c(c1C(=O)Nc1ccc(F)c(C#N)c1)CCC(C(F)(F)F)NS2(=O)=O (single isomer, unassigned) [Compound 60a, N-(3-cyano-4-fluoro-phenyl)-7-methyl-1,1-dioxo-3-(trifluoromethyl)-2,3,4,5-tetrahydropyrrolo[3,4-f]thiazepine-6-carboxamide] | – | > 25 µM | 7.26 |
| CC(C)C1C=Cc2c(cn(C)c2C(=O)Nc2ccc(F)c(F)c2)S(=O)(=O)N1 (single isomer, unassigned) [Compound 79a, N-(3,4-difluorophenyl)-3-isopropyl-7-methyl-1,1-dioxo-2,3-dihydropyrrolo[3,4-f]thiazepine-6-carboxamide] | – | > 25 µM | 7.37 |
| Cn1cc2c(c1C(=O)Nc1ccc(F)c(F)c1)OCC(C1CCOCC1)NS2(=O)=O (single isomer, unassigned) [Compound 89a, N-(3,4-difluorophenyl)-7-methyl-1,1-dioxo-3-tetrahydropyran-4-yl-3,4-dihydro-2H-pyrrolo[3,4-b][1,4,5]oxathiazepine-6-carboxamide] | – | > 25 µM | 6.72 |
| Cn1cc2c(c1C(=O)Nc1ccc(F)c(F)c1)OC[C@@H](C(O)C1CC1)NS2(=O)=O (single isomer, unassigned) [Compound 92a] | – | > 24 µM | 7.51 |
| CC(C)C(O)C1COc2c(cn(C)c2C(=O)Nc2ccc(F)c(F)c2)S(=O)(=O)N1 (single isomer, unassigned) [Compound 114a, N-(3,4-difluorophenyl)-3-(1-hydroxy-2-methyl-propyl)-7-methyl-1,1-dioxo-3,4-dihydro-2H-pyrrolo[3,4-b][1,4,5]oxathiazepine-6-carboxamide] | – | > 25 µM | 7.66 |
| Cn1cc2c(c1C(=O)Nc1ccc(F)c(C#N)c1)CCC(C(C)(C)O)NS2(=O)=O (single isomer, unassigned) [Compound 116a, N-(3-cyano-4-fluoro-phenyl)-3-(1-hydroxy-1-methyl-ethyl)-7-methyl-1,1-dioxo-2,3,4,5-tetrahydropyrrolo[3,4-f]thiazepine-6-carboxamide] | – | > 25 µM | 7.66 |
| CCC1(C)COc2c(cn(C)c2C(=O)Nc2ccc(F)c(F)c2)S(=O)(=O)N1 (single isomer, unassigned) [Compound 134a, N-(3,4-difluorophenyl)-3-ethyl-3,7-dimethyl-1,1-dioxo-2,4-dihydropyrrolo[3,4-b][1,4,5]oxathiazepine-6-carboxamide] | 8.10 | > 25 µM | – |
| CCC(O)[C@@H]1COc2c(cn(C)c2C(=O)Nc2ccc(F)c(F)c2)S(=O)(=O)N1 (single isomer, unassigned) [Compound 142a, N-(3,4-difluorophenyl)-3-(1-hydroxypropyl)-7-methyl-1,1-dioxo-3,4-dihydro-2H-pyrrolo[3,4-b][1,4,5]oxathiazepine-6-carboxamide] | 7.19 | > 25 µM | – |
| CCC(O)[C@@H]1COc2c(cn(C)c2C(=O)Nc2ccc(F)c(C(F)F)c2)S(=O)(=O)N1 (single isomer, unassigned) [Compound 144a, N-[3-(difluoromethyl)-4-fluoro-phenyl]-3-(1-hydroxypropyl)-7-methyl-1,1-dioxo-3,4-dihydro-2H-pyrrolo[3,4-b][1,4,5]oxathiazepine-6-carboxamide] | – | > 25 µM | 7.72 |
| Cn1cc2c(c1C(=O)Nc1cc(F)c(F)c(F)c1)CCC(C(C)(C)O)NS2(=O)=O (single isomer, unassigned) [Compound 149a, 3-(1-hydroxy-1-methyl-ethyl)-7-methyl-1,1-dioxo-N-(3,4,5-trifluorophenyl)-2,3,4,5-tetrahydropyrrolo[3,4-f]thiazepine-6-carboxamide] | – | > 25 µM | < 6.90 |
| Cn1cc2c(c1C(=O)Nc1ccc(F)c(C(F)F)c1)CCC(C(C)(C)O)NS2(=O)=O (single isomer, unassigned) [Compound 150a, N-[3-(difluoromethyl)-4-fluoro-phenyl]-3-(1-hydroxy-1-methyl-ethyl)-7-methyl-1,1-dioxo-2,3,4,5-tetrahydropyrrolo[3,4-f]thiazepine-6-carboxamide] | – | > 25 µM | < 6.90 |
| CC(NCC(F)(F)F)C1COc2c(cn(C)c2C(=O)Nc2ccc(F)c(C#N)c2)S(=O)(=O)N1 (single isomer, unassigned) [Compound 161a, N-(3-cyano-4-fluoro-phenyl)-7-methyl-1,1-dioxo-3-[1-(2,2,2-trifluoroethylamino)ethyl]-3,4-dihydro-2H-pyrrolo[3,4-b][1,4,5]oxathiazepine-6-carboxamide] | – | > 25 µM | 7.31 |
| Cc1cc(CC2(C)COc3c(cn(C)c3C(=O)Nc3ccc(F)c(F)c3)S(=O)(=O)N2)no1 (single isomer, unassigned) [Compound 162a, N-(3,4-difluorophenyl)-3,7-dimethyl-3-[(5-methylisoxazol-3-yl)methyl]-1,1-dioxo-2,4-dihydropyrrolo[3,4-b][1,4,5]oxathiazepine-6-carboxamide] | – | > 25 µM | 7.48 |
